Experimental data from PMC9965625, “Endocannabinoid 2-Arachidonoylglycerol Synthesis and Metabolism at Neuronal Nuclear Matrix Fractions Derived from Adult Rat Brain Cortex” (International Journal of Molecular Sciences, 2023).

Molecular target: T1, α/β-hydrolase domain 12 protein (ABHD12) (Rattus norvegicus, UniProt Q6AYT7)
T1 construct: native enzyme in nuclear matrix fraction of adult rat brain cortex
T1 sequence (Q6AYT7 1-398): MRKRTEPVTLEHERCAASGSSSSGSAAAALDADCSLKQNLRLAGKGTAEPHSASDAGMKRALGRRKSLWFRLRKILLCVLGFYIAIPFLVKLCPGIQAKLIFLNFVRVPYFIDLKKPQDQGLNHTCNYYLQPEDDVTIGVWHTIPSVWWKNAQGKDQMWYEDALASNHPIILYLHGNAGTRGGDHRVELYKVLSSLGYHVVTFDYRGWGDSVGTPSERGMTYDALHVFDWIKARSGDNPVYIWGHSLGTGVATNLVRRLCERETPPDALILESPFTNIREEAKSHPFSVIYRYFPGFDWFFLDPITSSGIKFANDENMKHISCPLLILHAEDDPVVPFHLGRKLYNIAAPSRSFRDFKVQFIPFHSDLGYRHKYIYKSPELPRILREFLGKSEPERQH
Experiment: LC/MS/MS of arachidonic acid formed from […] exogenous 2-AG in nuclear matrix fraction, blocked by MAFP
Format: cell-based

## CCCCC/C=C\C/C=C\C/C=C\C/C=C\CCCC(=O)OC(CO)CO [2-AG]
  LC/MS/MS of arachidonic acid formed from 10 μM exogenous 2-AG in nuclear matrix: ABHD12 is the main responsible for the hydrolysis of 2-AG in the nuclear matrix
